# Measurements from US20230301298A1, “Biocide Compositions” (BASF SE, priority 2020, published 2023).
# Where “and” joins values, the source holds several entries; their conditions need not be identical. Equal values may be shown once.
# How the values were obtained:
# [1] = Solubility of biocide in two-component solvent system (A1:A2); assay type: physicochemical
# Procedure: Component (A1) and component (A2) were mixed and heated to a temperature in the range of 20° C. to 100° C. to obtain a solution. Respective amount of the biocide was charged to the above solution at a temperature in the range of 20° C. to 100° C. to obtain the solution containing biocide. Emulsifier and other optional ingredients were charged o to the above biocide containing solution to obtain the emulsifiable composition (C).
# [2] = Solubility of azoxystrobin in three components solvent system; assay type: physicochemical
# Procedure: Component (A1) and component (A2) were mixed and heated to a temperature in the range of 20° C. to 100° C. to obtain a solution. Respective amount of the biocide was charged to the above solution at a temperature in the range of 20° C. to 100° C. to obtain the solution containing biocide. Emulsifier and other optional ingredients were charged o to the above biocide containing solution to obtain the emulsifiable composition (C). It is evident from table 1 to 5 that the biocides can be solubilised in a combination of at least one component (A1) and at least one component (A2) and which can be further formulated to stable emulsion concentrate. It can be inferred from table 4 that the tebuconazole can be formulated to an emulsifiable concentrate compared to suspension concentrate or emulsion concentrate in aromatic solvent system. Further, table 5 discloses that a three components solvent system also aids in solubilizing the biocides or adding water to two-components solvent system can improve the solubility of the biocide(s).
# [3] = solvent system 2-phenylethanol : Formic acid, molar ratio 1:2
# [4] = solvent system 2-phenylethanol : Formic acid, molar ratio 2:1
# [5] = solvent system 2-phenylethanol : Methyl salicylate, molar ratio 1:1
# [6] = solvent system 2-phenylethanol : Methyl salicylate, molar ratio 2:1
# [7] = solvent system 4-methylcyclohexanol : Methyl salicylate, molar ratio 1:2
# [8] = solvent system Cyclohexanol : D,L-Lactic acid, molar ratio 1:1
# [9] = solvent system Thymol : Phenyl acetic acid, molar ratio 2:1
# [10] = solvent system formic acid : Methyl salicylate, molar ratio 2:1
compound,measurement,setting,value
CO/C=C(/C(=O)OC)c1ccccc1Oc1cc(Oc2ccccc2C#N)ncn1 [Azoxystrobin],Solubility wt. % in total (C),"[1]; solvent system 2-phenoxyethanol : D,L-Lactic acid, molar ratio 1:1",36 wt. %
same,Solubility wt. % in total (C),"[1]; solvent system 2-phenoxyethanol : D,L-lactic acid, molar ratio 1:2",20 wt. %
same,Solubility wt. % in total (C),"[1]; solvent system 2-phenoxyethanol : Methyl salicylate, molar ratio 1:1",19 wt. %
same,Solubility wt. % in total (C),"[1]; solvent system 2-phenoxyethanol : Veratrole, molar ratio 2:1",23 wt. %
same,Solubility wt. % in total (C),"[1]; solvent system 2-phenylethanol : D,L-Lactic acid, molar ratio 1:1",25 wt. %
same,Solubility wt. % in total (C),"[1]; solvent system 2-phenylethanol : D,L-Lactic acid, molar ratio 2:1",22 wt. %
same,Solubility wt. % in total (C),[1]; [3],20 wt. %
same,Solubility wt. % in total (C),[1]; [4],20 wt. %
same,Solubility wt. % in total (C),[1]; [5],27 wt. %
same,Solubility wt. % in total (C),"[1]; solvent system 2-phenylethanol : Methyl salicylate, molar ratio 1:2",25 wt. % and 24 wt. %
same,Solubility wt. % in total (C),[1]; [6],27 wt. % and 23 wt. %
same,Solubility wt. % in total (C),"[1]; solvent system 2-phenylethanol : Phenyl acetic acid, molar ratio 2:1",25 wt. %
same,Solubility wt. % in total (C),"[1]; solvent system 4-isopropylbenzylalcohol : Phenyl acetic acid, molar ratio 2:1",24 wt. %
same,Solubility wt. % in total (C),"[1]; solvent system 4-methylcyclohexanol : Hydroxy pivalic acid, molar ratio 2:1",24 wt. %
same,Solubility wt. % in total (C),[1]; [7],20 wt. %
same,Solubility wt. % in total (C),"[1]; solvent system Carvacrol : 2-ethylphenol, molar ratio 1:2",<49 wt. %
same,Solubility wt. % in total (C),[1]; [8],20 wt. %
same,Solubility wt. % in total (C),"[1]; solvent system Cyclohexanol : D,L-Lactic acid, molar ratio 1:2",20 wt. %
same,Solubility wt. % in total (C),"[1]; solvent system Cyclohexanol : Hydroxy pivalic acid, molar ratio 2:1",21 wt. %
same,Solubility wt. % in total (C),"[1]; solvent system D,L-Lactic acid : 1,2-dimethoxy benzene, molar ratio 2:1",32 wt. %
same,Solubility wt. % in total (C),"[1]; solvent system D,L-Lactic acid : 2-phenoxyethanol, molar ratio 1:1",23 wt. %
same,Solubility wt. % in total (C),"[1]; solvent system D,L-Lactic acid : 4-acetylanisole, molar ratio 2:1",22 wt. %
same,Solubility wt. % in total (C),"[1]; solvent system D,L-Lactic acid : 4-isopropylbenzyl alcohol, molar ratio 2:1",33 wt. %
same,Solubility wt. % in total (C),"[1]; solvent system D,L-Lactic acid : Veratrole, molar ratio 2:1",24 wt. %
same,Solubility wt. % in total (C),"[1]; solvent system Formic acid : 1,2-dimethoxy benzene, molar ratio 2:1",49 wt. %
same,Solubility wt. % in total (C),"[1]; solvent system Thymol : (L)-menthol, molar ratio 1:1",28 wt. %
same,Solubility wt. % in total (C),[1]; [9],60 wt. %
same,Solubility wt. % in total (C),"[1]; solvent system formic acid : Methyl salicylate, molar ratio 1:2",27 wt. %
same,Solubility wt. % in total (C),[1]; [10],40 wt. %
same,Solubility of Azoxystrobin wt. % in total (C),"[2]; 2-Phenoxyethanol:Methyl Salicylate:Water (tap), molar ratio 1:1:0.5",24 wt. %
same,Solubility of Azoxystrobin wt. % in total (C),"[2]; 2-Phenoxyethanol:Methyl salicylate:D,L-Lactic acid, molar ratio 1:1:2",29 wt. %
same,Solubility of Azoxystrobin wt. % in total (C),"[2]; 2-Phenoxyethanol:Veratrole:D,L-Lactic acid, molar ratio 1:1:2",21 wt. %
same,Solubility of Azoxystrobin wt. % in total (C),"[2]; 2-Phenoxyethanol:Veratrole:Water (tap), molar ratio 1:2:0.5",25 wt. %
same,Solubility of Azoxystrobin wt. % in total (C),"[2]; 2-Phenylethanol:Methyl Salicylate:Water (tap), molar ratio 1:1:0.5",25 wt. %
same,Solubility of Azoxystrobin wt. % in total (C),"[2]; 2-Phenylethanol:phenyl acetic acid:Water (tap), molar ratio 2:1:0.5",25 wt. %
CS(=O)(=O)c1ccc(C(=O)C2C(=O)CCCC2=O)c([N+](=O)[O-])c1 [Mesotrione],Solubility wt. % in total (C),[1]; [9],20 wt. %
CC(C)(C)C(O)(CCc1ccc(Cl)cc1)Cn1cncn1 (stereo not shown) [Tebuconazole],Solubility wt. % in total (C),"[1]; solvent system 2-phenylethanol : Formic acid, molar ratio 1:1",40 wt. %
same,Solubility wt. % in total (C),[1]; [3],40 wt. %
same,Solubility wt. % in total (C),[1]; [4],35 wt. %
same,Solubility wt. % in total (C),[1]; [5],38 wt. %
same,Solubility wt. % in total (C),[1]; [6],42 wt. %
same,Solubility wt. % in total (C),[1]; [7],35 wt. %
same,Solubility wt. % in total (C),[1]; [8],47 wt. %
same,Solubility wt. % in total (C),"[1]; solvent system Cyclohexanol : Methyl salicylate, molar ratio 1:2",38 wt. %
same,Solubility wt. % in total (C),[1]; [9],36 wt. %
same,Solubility wt. % in total (C),[1]; [10],50 wt. %
